Reference: article PMC10821118, “Gallium-68-Labeled KISS1-54 Peptide for Mapping KISS1 Receptor via PET: Initial Evaluation in Human Tumor Cell Lines and in Tumor-Bearing Mice” (Pharmaceuticals, 2023)
Ends that are not written are not given here.

How the values were obtained:
LNCap tumor xenograft = assay type: in vivo, CD1 nu/nu mice
Description: (§1) The animal studies were conducted according to the principles and procedures outlined in the Guide for the Care and Use of Laboratory Animals and were in line with the Animal Welfare Act and the directive 2010/63/EU. All mice (CD1-Foxn1nu) were purchased from Charles River (Sulzfeld, Germany) and held in the animal facility of the University Hospital of Würzburg. After their arrival, they had at least a week to get used to their new environment in the animal facility.
(§2) Then, 5 × 10^6 MDA-MB-231-cells in PBS and 5 × 10^6 LNCap cells in Matrigel Matrix® without phenol-red (Corning Life Sciences B.V., Amsterdam, The Netherlands), respectively, were inoculated subcutaneously into the front flank of eight-week-old mice. After implantation, the animals were examined and monitored daily for tumor size and well-being.
(§3) After the tumor reached a size of ≥0.5 cm in diameter, micro-PET scans were started.
(§4) For tracer injection, and during the micro-PET scans, mice were kept under 1.5% isoflurane anesthesia in 100% oxygen. Body temperature was maintained at a physiological level by using heating pads throughout the whole examination period.
(§5) Then, 3.0 ± 0.9 MBq of freshly prepared [^68Ga]KISS1-54 was injected intravenously (i.v.) into the tail vein. The first animals were scanned over 80 min directly after tracer injection to find out the optimal time point for PET acquisition. […] Therefore, data acquisition for all further mice started 60 min p.i. over 20 min.
(§6) Each acquired set of data was sorted with Fourier rebinning (FORE) to a 2D dataset of sinograms, which were reconstructed with the OSEM2D reconstruction algorithm. The software AMIDE Medical Image Data Examiner (Version 1.0.4) was used to quantify the radioactivity uptake in various regions of interest (ROIs). For the semi-quantitative analysis of the PET images, spherical ROIs were defined and used. For quantification, tumor-to-muscle, tumor-to-liver, and tumor-to-lung ratios (maximal tumor uptake/mean organ uptake) were calculated.

[1] = test system: MDA-MB-231 tumor xenograft; assay type: in vivo, CD1 nu/nu mice
Description: as §1, §2, §3, §4, §5, §6

KISS1R in HCT116 cells = experiment: KISS1R expression by immunofluorescence after Decitabine pre-incubation; assay type: cell-based, human; conditions: HCT116 pre-incubated 72 h with 5 µM Decitabine versus untreated
Description: Cells were seeded in 24-well plates on microscope cover glasses (VWR, Ismaning, Germany). After fixation/permeabilization, cells were incubated overnight with anti-KISS1R antibody (abcam, Berlin, Germany) or without primary antibody (negative control) and then stained with Alexa-Fluor®-488 conjugated secondary antibody (abcam, Berlin, Germany). The nucleus was counterstained with 4′,6-Diamidin-2-phenylindol (DAPI) (Sigma-Aldrich, Deisenhofen, Germany). Fluorescence images were taken on an Axio Scope.A1 fluorescence microscope equipped with a camera and the ZEN2 (blue edition)-Software, version 2.0.0.0 (Zeiss, Jena, Germany). Fluorescence canals were merged using the software FIJI (Image J, version 1.53t).
Cells were seeded in 24-well plates, and 1 h before [^68Ga]KISS1-54 uptake, the cell culture medium was replaced by PBS/5% BSA. Cells were incubated at 37 °C with [^68Ga]KISS1-54 for 5–90 min or co-incubated for 60 min with [^68Ga]KISS1-54 and KISS1-54 (Sigma Aldrich, Deisenhofen, Germany). After incubation, cells were washed three times with ice-cold PBS/5% BSA and harvested. Radioactivity was measured with a gamma-counter (Wizard 2480, Perkin-Elmer, Rodgau, Germany), and cells were subsequently counted with Countess 3 (Thermo Fisher Scientific, Waltham, MA, USA). […]

[2] = target: KISS1 receptor (KISS1R or GPR54); conditions: affinity for KISS1R; ref [1],[2]; cited from earlier work
Description: Kisspeptins (KPs) summarize the family of KISS1 peptides, which bind at the KISS1 receptor (KISS1R or GPR54) with high affinity. Among the KPs, KISS1-54 is the best characterized representative (Ki 1.45 ± 0.1 nM for KISS1-54). The Kiss1 gene was first identified as a metastasis suppressor gene in melanoma, which suppresses metastasis without affecting the formation of primary tumor [3]. Since then, Kisspeptin was also identified in pancreatic, lung, breast, ovarian, gastric, colon, bladder, esophageal, and small intestine cancer.

LNCap cells = experiment: In vitro cell uptake, LNCap; assay type: cell-based, human; conditions: 60 min co-incubation with nonradioactive KISS1-54, 1,000-fold, p = 0.047
Description: (§7) Cells were seeded in 24-well plates, and 1 h before [^68Ga]KISS1-54 uptake, the cell culture medium was replaced by PBS/5% BSA. Cells were incubated at 37 °C with [^68Ga]KISS1-54 for 5–90 min or co-incubated for 60 min with [^68Ga]KISS1-54 and KISS1-54 (Sigma Aldrich, Deisenhofen, Germany). After incubation, cells were washed three times with ice-cold PBS/5% BSA and harvested. Radioactivity was measured with a gamma-counter (Wizard 2480, Perkin-Elmer, Rodgau, Germany), and cells were subsequently counted with Countess 3 (Thermo Fisher Scientific, Waltham, MA, USA). In the case of treatment with 5-Aza-2′-Deoxycytidine (Decitabine (DC)), cells were preincubated for 72 h in cell culture medium containing 5 µM Decitabine (Merck Millipore, Darmstadt, Germany). For data analysis, the determined accumulation of [^68Ga]KISS1-54 in vitro was standardized as “uptake/100,000 cells” for a better comparison. For example, the cell number differed between pretreatment with and without Decitabine, which is due to the treatment itself, making standardization necessary.

HeLa cells = experiment: In vitro cell uptake, HeLa; assay type: cell-based, human; conditions: 60 min co-incubation with nonradioactive KISS1-54, 1,000-fold, p < 0.001
Description: as §7

HCT116 cells = experiment: In vitro cell uptake, HCT116; assay type: cell-based, human
Description: as §7

in vivo = experiment: in vivo; set-up: species or system CD1 nu/nu mice; conditions: mouse, iv; for tissue uptake at 1 h: CD1-Foxn1nu (CD1 nu/nu), total radioactivity
Description: as §1, §2, §3, §4, §5, §6

SK-BR-3 cells = experiment: In vitro cell uptake, SK-BR-3; assay type: cell-based, human; conditions: 60 min co-incubation with nonradioactive KISS1-54, 1,000-fold, p = 0.02
Description: as §7

[3] = Stability in injection solution by radio-HPLC; assay type: physicochemical; conditions: 3 h after preparation (EOS), diluted in PBS, room temperature, C18
Description: The radiochemical purity of [^68Ga]KISS1-54 was determined via high-performance liquid chromatography (HPLC). A linear gradient started from 100% H2O (0.1% TFA) to 100% acetonitrile (0.1% TFA) over 10 min, with a flow rate of 0.7 mL/min, using a Nucleosil column (100-5 C18 125 × 4.6 mm) (CS-Chromatographie, Langerwehe, Germany) and HPLC system (Knauer, Berlin, Germany). For the determination of the in vitro stability, the [^68Ga]KISS1-54 solution was diluted in phosphate-buffered saline (PBS) and stored at room temperature, and the HPLC runs were repeated 1 h and 3 h after the end of synthesis.

MCF-7 cells = experiment: In vitro cell uptake, MCF-7; assay type: cell-based, human; conditions: 60 min co-incubation with nonradioactive KISS1-54, 1,000-fold, p = 0.004
Description: as §7

MDA-MB-231 cells = experiment: In vitro cell uptake, MDA-MB-231; assay type: cell-based, human; conditions: 60 min co-incubation with nonradioactive KISS1-54, 1,000-fold, not significant, p = 0.08
Description: as §7

[4] = assay type: in vitro ADME, human
Description: For the determination of the […] stability, [^68Ga]KISS1-54 was incubated in fresh human serum at 37 °C for 3 h. After 0.5 h, 1 h, 2 h, and 3 h, adequate samples were taken, purified, and analyzed via HPLC under the conditions described above. […] The measured radioactivity (counts per minute) for each fraction was plotted versus time in a graph.

HepG2 cells = experiment: In vitro cell uptake, HepG2; assay type: cell-based, human; conditions: 60 min co-incubation with nonradioactive KISS1-54, 1,000-fold, p = 0.02
Description: as §7

Compound: O=C[C@H]([18F])[C@@H](O)[C@H](O)[C@H](O)CO [[^18F]FDG, 2-[^18F]fluoro-2-deoxyglucose, reference compound]
- tumor uptake in control PET (tumor vitality) (LNCap tumor xenograft; LNCap tumor, scan the day before [^68Ga]KISS1-54): clear FDG uptake
- tumor uptake in control PET (tumor vitality) ([1]; MDA-MB-231 tumor, scan the day before [^68Ga]KISS1-54): clear FDG uptake

Compound: Nc1ncn([C@H]2C[C@H](O)[C@@H](CO)O2)c(=O)n1 [Decitabine, 5-Aza-2′-Deoxycytidine]
- KISS1R level by immunofluorescence (KISS1R in HCT116 cells): increase in the KISS1R level

Compound: KISS1-54: KISS1 peptide with 54 amino acids; nonradioactive blocking agent (GTSLSPPPESSGSPQQPGLSAPHSRQIPAPQGAVLVQREKDLPNYNWNSFGLRF; ends and bridges not checked; UniProt Q15726 68-121, looked up)
- Ki [2]: 1.45 ± 0.1 nM

Compound: CC[C@H](C)[C@H](NC(=O)[C@H](CCC(N)=O)NC(=O)[C@H](CCCNC(=N)N)NC(=O)[C@H](CO)NC(=O)[C@H](Cc1c[nH]cn1)NC(=O)[C@@H]1CCCN1C(=O)[C@H](C)NC(=O)[C@H](CO)NC(=O)[C@H](CC(C)C)NC(=O)CNC(=O)[C@@H]1CCCN1C(=O)[C@H](CCC(N)=O)NC(=O)[C@H](CCC(N)=O)NC(=O)[C@H](CCCNC(=N)N)NC(=O)[C@H](CO)NC(=O)CNC(=O)[C@H](CO)NC(=O)[C@H](CO)NC(=O)[C@H](CCC(=O)O)NC(=O)[C@@H]1CCCN1C(=O)[C@@H]1CCCN1C(=O)[C@@H]1CCCN1C(=O)[C@H](CO)NC(=O)[C@H](CC(C)C)NC(=O)[C@H](CO)NC(=O)[C@@H](NC(=O)CNC(=O)CCC(C(=O)O)N1CCN(CC(=O)O)CCN(CC(=O)O)CC1)[C@@H](C)O)C(=O)N1CCC[C@H]1C(=O)N[C@@H](C)C(=O)N1CCC[C@H]1C(=O)N[C@@H](CCC(N)=O)C(=O)NCC(=O)N[C@@H](C)C(=O)N[C@H](C(=O)N[C@@H](CC(C)C)C(=O)N[C@H](C(=O)N[C@@H](CCC(N)=O)C(=O)N[C@@H](CCCNC(=N)N)C(=O)N[C@@H](CCC(=O)O)C(=O)N[C@@H](CCCCN)C(=O)N[C@@H](CC(=O)O)C(=O)N[C@@H](CC(C)C)C(=O)N1CCC[C@H]1C(=O)N[C@@H](CC(N)=O)C(=O)N[C@@H](Cc1ccc(O)cc1)C(=O)N[C@@H](CC(N)=O)C(=O)N[C@@H](Cc1c[nH]c2ccccc12)C(=O)N[C@@H](CC(N)=O)C(=O)N[C@@H](CO)C(=O)N[C@@H](Cc1ccccc1)C(=O)NCC(=O)N[C@@H](CC(C)C)C(=O)N[C@@H](CCCNC(=N)N)C(=O)N[C@@H](Cc1ccccc1)C(N)=O)C(C)C)C(C)C (some centres unmarked) [[^68Ga]KISS1-54, metal not drawn]
- uptake with KISS1-54 co-incubation, relative to control without blocking (LNCap cells): 50%
- uptake with KISS1-54 co-incubation, relative to control without blocking (HeLa cells): 40%
- tumor uptake (LNCap tumor xenograft; LNCap tumor, 60 min p.i., i.v., µ-PET, mean ± SD, n = 8): 0.9 ± 0.3 % ID/g
- tumor visualisation in PET (LNCap tumor xenograft; LNCap xenograft, n = 8, visual inspection): clearly delineated from the surrounding tissue
- reduction of tumor uptake by co-injection of KISS1-54 (LNCap tumor xenograft; LNCap-bearing mice, nonradioactive KISS1-54 in 100-fold excess): 26 ± 5%
- tumor-to-muscle ratio (LNCap tumor xenograft; LNCap, maximal tumor uptake/mean organ uptake, 60 min p.i.): 2.0 ± 0.3
- tumor-to-muscle ratio ([1]; MDA-MB-231, maximal tumor uptake/mean organ uptake, 60 min p.i.): 1.4 ± 0.4
- tumor uptake ([1]; MDA-MB-231 tumor, 60 min p.i., i.v., µ-PET, mean ± SD, n = 10): 0.7 ± 0.3 % ID/g
- tumor visualisation in PET ([1]; MDA-MB-231 tumor, n = 10, visual inspection): no significant uptake
- increased uptake after Decitabine treatment, with KISS1-54 co-incubation (HCT116 cells; DC-treated HCT116, 60 min co-incubation with KISS1-54): could be blocked
- uptake in Decitabine-pre-incubated HCT116 versus untreated cells (HCT116 cells; HCT116, 72 h pre-incubation with 5 µM Decitabine): significantly increased
- uptake with KISS1-54 co-incubation, relative to control without blocking (HCT116 cells; HCT116, 60 min co-incubation with nonradioactive KISS1-54, 1,000-fold, not significant, p = 0.07): 76%
- tissue uptake at 1 h (in vivo; tracer accumulation in brain): ~0.2 %ID/g
- tissue uptake at 1 h (in vivo; tracer accumulation in liver): ~0.8 %ID/g
- tissue uptake at 1 h (in vivo; tracer accumulation in muscle): ~0.5 %ID/g
- clearance (in vivo): rapid renal tracer clearance during the first few minutes
- uptake with KISS1-54 co-incubation, relative to control without blocking (SK-BR-3 cells): 46%
- radiochemical purity in injection solution [3]: > 99%
- uptake with KISS1-54 co-incubation, relative to control without blocking (MCF-7 cells): 47%
- uptake with KISS1-54 co-incubation, relative to control without blocking (MDA-MB-231 cells): 65%
- radiochemical purity after incubation in human serum, 1 h [4]: 98.0%
- uptake with KISS1-54 co-incubation, relative to control without blocking (HepG2 cells): 46%
